Measured values taken from US11840686B2, “Modulation of prekallikrein (PKK) expression” (Ionis Pharmaceuticals, Inc., priority 2013, dated 2023).
Strand notation (5' to 3'): a small letter for the sugar, then the base; units joined by * are phosphorothioate-linked, units joined directly phosphodiester-linked; [ ] holds rarer units or linkages, { } end groups; capitals alone tell only the bases. e = 2'-O-(2-methoxyethyl) (MOE); [5mC] = 5-methylcytosine; d = 2'-deoxy (DNA)

Tested on: human PKK mRNA
Assay: Antisense inhibition of human PKK mRNA in HepaRG cells, 5,000 nM (Example 2)
Format: cell-based
Summary of the method: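 HepaRG cells, 20,000 per well, were electroporated with 5,000 nM MOE gapmer (phosphorothioate, 5-methylcytosine) and incubated about 24 hours. PKK mRNA was quantified by qRT-PCR with primer probe set RTS3454, normalized to RIBOGREEN total RNA, and expressed as percent inhibition versus untreated controls.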

[1] = Table 9 experiment, HepaRG cells, 20,000 cells per well, electroporation with 5,000 nM antisense oligonucleotide, approx. 24 hours, PKK mRNA by RT-PCR (RTS3454), relative to untreated control cells
[2] = Table 10 experiment, HepaRG cells, 20,000 cells per well, electroporation with 5,000 nM antisense oligonucleotide, approx. 24 hours, PKK mRNA by RT-PCR (RTS3454), relative to untreated control cells
[3] = human PKK mRNA in HepaRG cells, 5-10-5 gapmers, Table 14
[4] = HepaRG cells, electroporation, 5,000 nM antisense oligonucleotide, approx. 24 hours, primer probe set RTS3454, relative to untreated control cells, Table 12
[5] = HepaRG cells, 5,000 nM antisense oligonucleotide, 5-10-5 gapmers, Table 17
[6] = Table 8, HepaRG cells, electroporation with 5,000 nM antisense oligonucleotide, approx. 24 hours, PKK mRNA by RT-PCR (RTS3454), relative to untreated control cells
[7] = HepaRG cells, electroporation with 5,000 nM antisense oligonucleotide, approximately 24 hours, PKK mRNA by RT-PCR (RTS3454), relative to untreated control cells, Table 6 experiment
[8] = human PKK mRNA, HepaRG cells, 5,000 nM antisense oligonucleotide, Table 18

Substance: 547449 (antisense eT*eT*eT*eT*eA*dT*dT*dT*dG*dT*dG*dA*dG*dA*dA*eA*eG*eG*eT*eG) [compound 547449]
- % inhibition [1]: 71%
- % inhibition [2]: 73%

Substance: 546345 (antisense e[5mC]*eA*eA*eG*e[5mC]*dA*dT*d[5mC]*dT*dT*dT*dT*d[5mC]*d[5mC]*d[5mC]*e[5mC]*e[5mC]*eT*eT*e[5mC]) [compound 546345]
- % inhibition [1]: 86%
- % inhibition [2]: 80%

Substance: 547621 (antisense eT*eA*e[5mC]*eT*eA*dG*dT*dT*dT*d[5mC]*d[5mC]*dT*dA*dT*dA*eA*e[5mC]*eA*eG*eT) [compound 547621]
- % inhibition [3]: 12%

Substance: 547541 (antisense eT*eA*eT*eA*eG*dA*dT*dG*dT*dT*dT*dA*dT*dT*dG*eT*eA*eG*e[5mC]*e[5mC]) [compound 547541]
- % inhibition [4]: 36%

Substance: 547055 (eG*e[5mC]*eT*e[5mC]*e[5mC]*dT*dG*dG*d[5mC]*dA*dG*d[5mC]*dA*dA*dT*eG*eA*e[5mC]*e[5mC]*e[5mC]; antisense) [compound 547055]
- % inhibition [5]: 70%

Substance: 546511 (eG*eT*eG*eA*eT*dG*dA*dA*dA*dG*dT*dA*d[5mC]*dA*dG*e[5mC]*eA*eG*e[5mC]*eA; antisense) [compound 546511]
- % inhibition [4]: 50%

Substance: 547437 (antisense e[5mC]*eT*e[5mC]*eT*e[5mC]*d[5mC]*d[5mC]*d[5mC]*dA*dA*dG*dA*dA*dG*dA*eG*eT*eT*eT*eG) [compound 547437]
- % inhibition [6]: 50%

Substance: 547429 (eA*eA*eT*e[5mC]*eT*d[5mC]*dA*dA*dA*dG*dA*dG*dT*dA*dA*e[5mC]*e[5mC]*eA*eG*eA; antisense) [compound 547429]
- % inhibition [6]: 81%

Substance: 547059 (eG*eG*eG*eT*eA*dT*d[5mC]*dT*dT*d[5mC]*dA*d[5mC]*dT*dG*dT*eT*e[5mC]*e[5mC]*eA*eG; antisense) [compound 547059]
- % inhibition [5]: 12%

Substance: 546606 (e[5mC]*eT*e[5mC]*eA*e[5mC]*d[5mC]*dA*dG*dA*dG*dT*dT*dG*dT*d[5mC]*e[5mC]*e[5mC]*e[5mC]*eA*eG; antisense) [compound 546606]
- % inhibition [5]: 0%

Substance: 546856 (eA*eA*e[5mC]*eT*eA*dT*dA*dA*d[5mC]*dA*dG*dT*dA*dT*d[5mC]*eA*e[5mC]*eT*eG*eT; antisense) [compound 546856]
- % inhibition [3]: 54%

Substance: 546186 (antisense eA*eT*eG*eT*e[5mC]*dT*d[5mC]*dG*dA*dT*dG*dG*d[5mC]*dA*dA*eG*e[5mC]*eA*e[5mC]*eT) [compound 546186]
- % inhibition [7]: 84%

Substance: 546887 (e[5mC]*e[5mC]*eT*eA*eT*dG*dT*d[5mC]*dA*d[5mC]*dT*dG*dT*dA*d[5mC]*e[5mC]*eT*eA*eT*eA; antisense) [compound 546887]
- % inhibition (human PKK mRNA, HepaRG cells, 5-10-5 motif oligonucleotides targeting SEQ ID NO: 1 and 10): 82%

Substance: 547331 (antisense eA*eG*e[5mC]*eA*e[5mC]*dT*dT*dA*dT*dT*dT*dG*dA*dT*dG*eA*e[5mC]*e[5mC]*eA*e[5mC]) [compound 547331]
- % inhibition [7]: 47%

Substance: 548738 (DNA eT*eA*e[5mC]*eT*dA*dG*dT*dT*dT*d[5mC]*d[5mC]*dT*dA*eT*eA*eA*e[5mC]; antisense) [compound 548738]
- % inhibition [8]: 0%

Substance: 546226 (antisense e[5mC]*e[5mC]*eA*eT*eA*d[5mC]*dA*dT*dT*dT*dG*dT*dA*dT*dA*eG*eA*eA*eT*eG) [compound 546226]
- % inhibition (Table 7, HepaRG cells, electroporation with 5,000 nM antisense oligonucleotide, approx. 24 hours, PKK mRNA by RT-PCR (RTS3454), relative to untreated control cells): 37%

Substance: 548751 (antisense eA*e[5mC]*eT*eG*dT*dA*d[5mC]*dT*dA*dG*dT*dT*dT*d[5mC]*e[5mC]*eT*eA*eT) [compound 548751]
- % inhibition [8]: 53%

Substance: 547361 (eG*e[5mC]*eA*eA*e[5mC]*d[5mC]*dA*dA*dT*dT*dT*d[5mC]*dT*dG*dA*eA*eA*eG*eG*eG; antisense) [compound 547361]
- % inhibition [7]: 46%
